Source: paper PMC9822434, “Estradiol-Based Salicylaldehyde (Thio)Semicarbazones and Their Copper Complexes with Anticancer, Antibacterial and Antioxidant Activities” (Molecules, 2022)
Where two headings read alike, the source gives them in different places.

Legend:
[1] = cyclic voltammetry of Cu(II)-(T)SC (1:1) systems; assay type: physicochemical; settings: 90% (v/v) DMSO/H2O, pH 7.40 (10 mM HEPES), 10 mV/s, 25 °C, I = 0.1 M (nBu4NPF6)
Description: Cyclic voltammograms of TSCs derivatives and their Cu(II) complexes at 25.0 ± 0.1 °C were recorded. nBu4NPF6 was used as a supporting electrolyte, and measurements were performed at pH 7.4. The complexes were obtained by mixing the ligand dissolved in DMSO with aqueous solution of CuCl2 in 1:1 ratio. The final concentration of stock was 1 mM. Measurements were performed on a conventional three-electrode system under argon atmosphere using an Autolab PGSTAT 204 potentiostat/galvanostat monitored with Metrohm’s Nova software. Samples were purged for 10 min with argon before recording the cyclic voltammograms. Platinum electrode was used as the working and auxiliary electrode and Ag/AgCl/3 M KCl as the reference electrode. The electrochemical system was calibrated with an aqueous solution of K3[Fe(CN)6] (E1/2 = +0.458 V vs. NHE). Redox potentials were obtained at 10 mV/s scan rate in the range of −1.3 to +0.8 V.

S. aureus ATCC 25928 = test: MIC determination; assay type: cell-based, Staphylococcus aureus; settings: Gram-positive S. aureus ATCC 25928; Mueller Hinton Broth
Description: (§1) Klebsiella pneumoniae (ATCC 49619), Escherichia coli (ATCC 25922), Staphylococcus aureus (ATCC 25928) and Enterococcus faecalis (ATCC 29212) strains were used as Gram-negative and Gram-positive bacterial cultures. The stock solutions of the tested compounds (dissolved in 90% (v/v) DMSO/H2O at 10 mM concentration) were diluted in 100 μL of Mueller Hinton Broth, and then two-fold serial dilutions were performed. As a starting point, 100 μM concentration of the compounds was used. Then, 10^−4 dilution of an overnight bacterial culture in 100 μL of medium was added to each well, with the exception of the medium control wells. Minimum inhibitory concentration (MIC) values of compounds were determined according to our previous work.

DU-145 cells = test: DCFDA staining (intracellular ROS); assay type: cell-based, human; settings: DU-145, 20 µM, 6 h
Description: (§2) DCFDA staining assay was performed to measure the total intracellular ROS level upon treatments. For this, 1 × 10^5 cells/well were seeded onto coverslips (VWR International, Radnor, Pennsylvania, PA, USA) placed in 24-well plates and left to grow. […] After treatments, cells were washed with PBS then incubated for 1 h with 10 μM DCFDA solution. The fluorescence intensity of the samples was assessed by an OLYMPUS BX51 microscope with Olympus DP70 camera and was quantified using ImageJ software.

MCF-7 KCR cells = test: DCFDA staining (intracellular ROS); assay type: cell-based, human; settings: 20 µM, 6 h
Description: as §2

A549 cells = test: DCFDA staining (intracellular ROS); assay type: cell-based, human; settings: A549, 20 µM, 6 h
Description: as §2

E. faecalis ATCC 29212 = test: MIC determination; assay type: cell-based, Enterococcus faecalis; settings: Gram-positive E. faecalis ATCC 29212; Mueller Hinton Broth
Description: as §1

MCF-7 KCR = test: MTT cytotoxicity assay; assay type: cell-based, human; settings: for IC50: 24 h incubation time
Description: (§3) To test the biological effects of the Cu(II) complexes and the ligands on human cancer cells, DU-145 prostate, A549 lung, and MCF-7 breast adenocarcinoma cells, as well as the multidrug-resistant MCF-7 KCR breast cancer cells were utilized. All the cell lines were maintained in RPMI-1640 media (Biosera, Nuaille, France) complemented with 10% fetal bovine serum (FBS), 2 mM L-glutamine, 0.01% streptomycin and 0.005% penicillin, (Biosera, Nuaille, France) and were cultured under standard conditions in a 37 °C incubator at 5% CO2 and 95% humidity. The cell lines were originally obtained from ATCC.
(§4) The effect of the complexes and of their ligands alone on the viability (on the metabolic activity) of human cancer cells was assessed by MTT assay. The tested compounds were dissolved in 90% (v/v) DMSO/H2O at 10 mM concentration. Equimolar solutions of the ligand CuCl2 salt were used for the cytotoxicity assays. The metal salts without ligands were also tested. For this, 1 × 10^4 cells/well were seeded into 96-well plates and left to grow overnight. On the following day, cells were exposed to increasing concentrations of each compound (0; 2.5; 5; 10; 15; 20 µM). After a 24 h incubation, cells were washed with PBS buffer and then incubated with 0.5 mg/mL MTT (Sigma-Aldrich, St Louis, Missouri, MO, USA) for 1 h at 37 °C. The formazan crystals were solubilized in DMSO (Molar Chemicals, Halásztelek, Hungary), and the absorbance of samples was determined at 570 nm using a Synergy HTX plate reader (BioTek, Winooski, Vermont, VT, USA). Absorption corresponding to the untreated control samples was considered as 100%.

MCF-7 = test: MTT cytotoxicity assay; assay type: cell-based, human; settings: MCF-7, MTT; for IC50: 24 h incubation time
Description: as §3, §4

A549 = test: MTT cytotoxicity assay; assay type: cell-based, human; settings: for IC50: 24 h incubation time
Description: as §3, §4

DU-145 = test: MTT cytotoxicity assay; assay type: cell-based, human; settings: DU-145, MTT; for IC50: 24 h incubation time
Description: as §3, §4

[2] = DPPH free radical scavenging assay; settings: for TEAC (Trolox equivalent antioxidant capacity): DPPH assay in ethanol; for TEAC (Trolox equivalent antioxidant capacity) / % Scavenging Effect: 25 °C; for % Scavenging Effect: DPPH:compound = 1:1 ratio after 30 min, ethanol; for IC50: in ethanol, T = 25 °C, cDPPH = 50 µM, ccompound = 5−50 µM
Description: The DPPH (Sigma-Aldrich) free radical scavenging capacity was studied at 25.0 ± 0.1 °C on an Agilent Cary 3500 spectrophotometer with tightly closed tandem cuvette according to our approach with some modifications. The stock solution of DPPH (100 µM) was prepared in ethanol, and 0.5 mL of this solution was added to one pocket of the cuvette and 0.5 mL of the tested compound in different concentrations in ethanol was added to another. The final concentration of the studied compounds was in the range 5–50 µM, where for DPPH concentration, it was always 50 µM. A standard compound Trolox (Sigma-Aldrich) was used as a positive control. The percentage of the antioxidant activity (AA), IC50 values (the concentration of compound at which it reduced 50% of DPPH) and Trolox equivalent antioxidant capacity (TEAC) were calculated.

[3] = system: A549, MCF-7, MCF-7 KCR and DU-145 cells; test: γH2AX immunostaining (DNA double-strand breaks); assay type: cell-based, human; settings: 20 µM, 3 h
Description: In order to determine the degree of DNA damage induced by the treatments, DNA double-strand breaks were visualized by γH2AX immunostaining. For this, 1 × 10^5 cells/well were seeded onto coverslips in 24-well plates. […] Then, cells were fixed with 4% formaldehyde (Molar Chemicals, Halásztelek, Hungary), permeabilized with 0.3% Triton-X-100 (Calbiochem, Merck Millipore, Darmstadt, Germany) and were blocked using 5% bovine serum albumin (BSA) (Sigma-Aldrich, St. Louis, MO, USA). Then, the samples were incubated with anti-γH2AX antibody (Thermo Fisher Scientific, Waltham, MA, USA) in 1:300 dilution followed by Alexa 488 fluorophore-conjugated goat anti-mouse secondary antibody (Abcam, Cambridge, UK) in 1:600 dilution. The fluorescence intensity of the stained samples was detected by an Olympus FV10i confocal microscope.

[4] = direct redox reaction of the Cu(II) complexes with GSH (UV–vis, anaerobic); assay type: physicochemical; settings: Cu(II) complex (25 µM) of the named ligand with GSH (1.25 mM), pH 7.4, anaerobic, 30% (v/v) DMSO/H2O, 25.0 °C
Description: (§5) The redox reaction of the Cu(II) complexes with GSH and ascorbic acid was studied at 25.0 ± 0.1 °C, at pH 7.40 (10 mM HEPES with 0.1 M KCl) on an Agilent Cary 8454 diode array spectrophotometer using a special, tightly closed tandem cuvette (Hellma Tandem Cell, 238-QS). The complex and the reducing agent were separated until the reaction was triggered. Both isolated pockets of the tandem cuvette were completely deoxygenated by bubbling argon for 10 min before mixing the reactants. Spectra were recorded before and then immediately after the mixing, and changes were followed till no further absorbance change was observed. The stock solutions of the reducing agents and the complexes were freshly prepared every day.
During the calculations, the absorbance (A)−time (t) curves were fitted and analyzed at the λmax of the complex. (A0 − Afinal) × e ^(−a×t) + Afinal equation was used where A0, Afinal and a parameters were refined and accepted at the minimal value of the weighted sum of squared residuals (difference between the measured and calculated absorbance values) at the given wavelength. Then observed rate constants (kobs) of the redox reaction were obtained from the data points of the simulated absorbance–time curves as the slope of the ln(A/A0) versus t plots.

[5] = direct redox reaction of the Cu(II) complexes with ascorbic acid (UV–vis, anaerobic); assay type: physicochemical; settings: Cu(II) complex 25 µM, 50 equiv. ascorbic acid, pH 7.4, 30% (v/v) DMSO/H2O
Description: as §5

[6] = cited from earlier work
[7] = assay type: physicochemical; settings: cligand = 20 µM
Description: An Orion 710A pH-meter equipped with a Metrohm combined electrode (type 6.0234.100) and a Metrohm 665 Dosimat burette were used for the UV–vis titrations at 25.0 ± 0.1 °C. Ionic strength of 0.10 M (KCl) was used to keep the activity coefficients constant. The titrations were performed with carbonate-free KOH solution of known concentration (0.10 M) with 30% (v/v) DMSO content. […] The average water ionization constant (pKw) is 14.54 ± 0.05 in the 30% (v/v) DMSO/H2O mixture. Argon was always passed over the solutions during the titrations. An Agilent Cary 8454 diode array spectrophotometer was used to record the UV–vis spectra at an interval of 200–800 nm. The path length was 2 cm. Spectrophotometric titrations were performed using a 0.1 M KOH titrant solution with 30% (v/v) DMSO on samples with 30% (v/v) DMSO containing HCl, KCl and the ligand at 20 μM concentration in the pH range 2.0–12.5 in the absence or in the presence of 1 or 0.5 equiv. Cu(II) ions. Proton dissociation constants (Ka) of the TSC ligands, the overall stability constants (β) of the Cu(II) complexes and the UV–vis spectra of the individual species were calculated by the computer program PSEQUAD [41] as was done in our previous works.

[8] = system: MCF-7 breast cancer cell line; set-up: method as in doi:10.1039/D0NJ01070G, PMID 34453218, PMID 33951554; settings: cited from earlier work
[9] = Cu(II) complex (25 µM) with GSH (1.25 mM), pH 7.4, anaerobic; cited from earlier work
[10] = 30% (v/v) DMSO/H2O, T = 25.0 °C, I = 0.1 M (KCl)

formal potential E’ vs. Ag/AgCl/3M KCl [1]	MIC (S. aureus ATCC 25928)	MIC (E. faecalis ATCC 29212)	IC50 [2]	SMILES	IC50 (MCF-7 KCR)	IC50 (MCF-7)	IC50 (A549)	IC50 (DU-145)	TEAC (Trolox equivalent antioxidant capacity) [2]	% Scavenging Effect [2]	DNA double-strand breaks (γH2AX) vs untreated control cells [3]	further results
+0.31 V	3.125 µM	12.5 µM	15.7 µM	C[C@]12CC[C@@H]3c4cc(/C=N/N=C(N)[S-])c([O-])cc4CC[C@H]3[C@@H]1CC[C@@H]2O.O.[Cu+2] [Cu(II)-estradiol-TSC]	13 ± 1.09 µM	8.4 ± 1.11 µM	10 ± 1.04 µM	> 20 µM	0.8	90.8%	None of these treatments caused a higher degree of DNA damage	intracellular amount of ROS vs DMSO control (DU-145 cells): significantly increased; intracellular amount of ROS vs DMSO control (MCF-7 KCR cells): significantly increased; intracellular amount of ROS vs DMSO control (A549 cells): significantly increased
+0.10 V	50 µM	>100 µM	> 50 µM	C[C@]12CC[C@@H]3c4cc(/C=N/N=C(N)[O-])c([O-])cc4CC[C@H]3[C@@H]1CC[C@@H]2O.O.[Cu+2] [Cu(II)-estradiol-SC]	> 20 µM	> 20 µM	> 20 µM	> 20 µM	–	8.5%	–	kobs [4]: rapid reduction of Cu(II); effect on cell viability (in words) (MCF-7 KCR; up to 20 µM, 24 h): only slightly toxic; effect on cell viability (in words) (MCF-7; up to 20 µM, 24 h): neither the estradiol-SC nor the Cu(II)-estradiol-SC complex exhibit any harmful effect; effect on cell viability (in words) (A549; up to 20 µM, 24 h): only slightly toxic; effect on cell viability (in words) (DU-145; up to 20 µM, 24 h): neither the estradiol-SC nor the Cu(II)-estradiol-SC complex exhibit any harmful effect; reduction by ascorbic acid (in words) [5]: remarkable spectral changes
–	>100 µM	>100 µM	17.8 µM	CC12CCC3c4cc(C=NNC(N)=S)c(O)cc4CCC3C1CCC2=O (stereo not shown) [estrone-TSC, reference compound]	> 20 µM	> 20 µM	16.7 ± 1.03 µM	> 20 µM	0.7	49.8%	None of these treatments caused a higher degree of DNA damage	logβ [CuLH−1] [6, 10]: 9.44 ^2; logβ [CuL]+ [6, 10]: 13.18 ^2; pCu7.4 ([6]; pH 7.4, cCu(II) = 20 µM, cligand = 20 µM): 11.9 ^2; pCu5.0 ([7]; calculated at pH 5.0, cCu(II) = 20 µM): 7.7; pCu6.0 ([7]; estimated at pH 6.0, cCu(II) = 20 µM): 9.2; IC50 [8]: 6.4 µM; kobs [9]: 0.13 ^3 min^−1
